# In patent EP4603105A1, “PHARMACEUTICAL COMPOSITION CONTAINING CYCLIC COMPOUND HAVING SELECTIVE KRAS INHIBITORY EFFECT AGAINST HRAS AND NRAS” (CHUGAI SEIYAKU KABUSHIKI KAISHA, priority 2022, dated 2024):
# Like-named read-outs stand apart in the source and are kept apart here. *1 amine or outer side, *2 acyl side, *3 side chain or, on linkers, in order; H or OH if unused. Where a SMILES comes first, the peptide text is derived from it. Bridges are numbered along the chain shown (N, C = ends). [ ]: non-standard residue; d: D form. The star is where a group is joined. hPhe(3-Cl-4-CF3) = N[C@@H](CCc1ccc(C(F)(F)F)c(Cl)c1)C(=O)O; X13 = CCCN([C@@H](COC1CCC1)C(=O)[*:2])[*:1]; NMeGly(cPent) = CN[C@H](C(=O)O)C1CCCC1; NMeD = CN[C@@H](CC(=O)O)C(=O)O; NMeL = CN[C@@H](CC(C)C)C(=O)O; Morpholide = C1CN(*)CCO1; NMeA = CN[C@@H](C)C(=O)O; Aze = O=C(O)[C@@H]1CCN1; Ac4c = NC1(C(=O)O)CCC1; Sar = CNCC(=O)O
# Assays:
# HRAS wild-type protein = HRAS wild-type protein (Homo sapiens, UniProt P01112); assay: Binding to HRAS by surface plasmon resonance (SPR), KD and KD ratio to KRAS
# Sequence of HRAS wild-type protein (P01112 whole entry): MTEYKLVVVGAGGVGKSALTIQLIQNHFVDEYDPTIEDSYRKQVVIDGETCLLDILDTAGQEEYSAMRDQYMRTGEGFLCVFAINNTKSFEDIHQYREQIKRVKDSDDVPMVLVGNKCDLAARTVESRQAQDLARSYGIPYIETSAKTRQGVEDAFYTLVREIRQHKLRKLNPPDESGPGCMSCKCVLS
# In short: (§1)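 Affinity is measured by surface plasmon resonance at 30°C against captured, GDP-loaded RAS carrying a biotinylated Avi tag. Compounds are titrated by single-cycle kinetics, and KD comes from a 1:1 fit.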
# [1] = tested on: human lung cancer strain NCI-H441; format: cell-based
# In short: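 Readout: […] after the ATP-based reagent. Compound: serial dilutions in dimethyl sulfoxide.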
# [2] = target: GDP-bound NRAS wild-type protein (Homo sapiens, UniProt P01111); assay: Binding to NRAS by surface plasmon resonance (SPR), KD and KD ratio to KRAS
# Sequence of GDP-bound NRAS wild-type protein (P01111 whole entry): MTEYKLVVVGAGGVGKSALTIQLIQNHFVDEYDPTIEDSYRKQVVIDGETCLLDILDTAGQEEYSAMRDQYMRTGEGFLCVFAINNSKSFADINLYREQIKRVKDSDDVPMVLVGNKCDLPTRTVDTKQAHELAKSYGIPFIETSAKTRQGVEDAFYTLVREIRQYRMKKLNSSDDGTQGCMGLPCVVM
# In short: as §1
# [3] = ratio of the KD value with respect to HRAS wild-type protein to the KD value with respect to KRAS
# [4] = ratio of the KD value with respect to GDP-bound NRAS wild-type protein to the KD value with respect to KRAS
# [5] = ratio of KD for HRAS wild-type protein to KD for KRAS
# [6] = ratio of KD for GDP-bound NRAS wild-type protein to KD for KRAS
Compound,HRAS /KRAS (HRAS wild-type protein; [3]),IC50 [1],"NRAS /KRAS [2, 4]",HRAS /KRAS (HRAS wild-type protein; [5]),"NRAS /KRAS [2, 6]",HRAS /KRAS (HRAS wild-type protein; ratio of KD value for HRAS wild-type protein to KD value for KRAS (SPR)),NRAS /KRAS ([2]; ratio of KD value for GDP-bound NRAS wild-type protein to KD value for KRAS (SPR)),"IC50 ([1]; NCI-H441 cells, 4 days, CellTiter-Glo, read-out: NCl-H441 IC50)"
CCCN(C)C(=O)[C@@H]1CC(=O)N(C)[C@@H](CC(F)F)C(=O)N[C@@H]([C@@H](C)CC)C(=O)N(C)CC(=O)N(C)[C@H]2C/C=C\CCN(C2=O)[C@@H](Cc2ccc(C(F)(F)F)cc2)C(=O)N(C)CC(=O)N[C@@H](CCc2ccc(C(F)(F)F)c(OC)c2)C(=O)N2C[C@H](OCC)C[C@H]2C(=O)NC2(CCC2)C(=O)N(C)[C@@H](C2CCCC2)C(=O)N1C [PP2013],B (a compound having 3 or more and less than 10 is denoted as B),7.7 nM,A (a compound having 10 or more and less than 20 is denoted as A),–,–,–,–,–
CCO[C@@H]1C[C@H]2C(=O)NC3(CCC3)C(=O)N(C)[C@@H](C(CC)CC)C(=O)N(C)[C@H](C(=O)N3CCCC3)CC(=O)N(C)[C@H]3CCC/C=C/c4ccc(cc4)C[C@@H](C(=O)N(C)CC(=O)N[C@@H](CCc4cc(F)c(C(F)(F)F)c(F)c4)C(=O)N2C1)N1CC/C=C\C[C@@H](C1=O)N(C)C(=O)CN(C1CC1)C(=O)[C@H]([C@@H](C)CC)NC3=O [PP2957],–,4.6 nM,–,A (a compound having 10 or more and less than 20 is denoted as A),AA (a compound having 20 or more is denoted as AA),–,–,–
CCCN1C(=O)[C@@H]2CCN2C(=O)[C@H](C)N(C)C(=O)[C@H]([C@@H](C)CC)NC(=O)[C@H](CC(C)C)N(C)C(=O)C[C@@H](C(=O)N2CCOCC2)N(C)C(=O)[C@H](C2CCCC2)N(C)C(=O)C2(CCC2)NC(=O)[C@@H]2CCCN2C(=O)[C@H](CCc2ccc(C(F)(F)F)c(Cl)c2)NC(=O)CN(C)C(=O)[C@@H]1COC1CCC1 [PP1818] ([NMeL]I[NMeA][Aze][X13][Sar][hPhe(3-Cl-4-CF3)]P[Ac4c][NMeGly(cPent)][NMeD]-Morpholide; lactam N-11),–,74.8 nM,–,–,–,B (a compound having 3 or more and less than 10 is denoted as B),C (A compound having a KD ratio of 0.1 or more and less than 3 is denoted as C),–
CCOC[C@H]1C(=O)N[C@@H]([C@@H](C)CC)C(=O)N(C)CC(=O)N(C)[C@H]2C/C=C\CCN(C2=O)[C@@H](Cc2ccc3c(c2)CCC3(F)F)C(=O)N(C)CC(=O)N[C@@H](CCc2ccc(C(F)(F)F)c(OC)c2)C(=O)N2C[C@@H](C)C[C@H]2C(=O)NC2(CC(C)(C)C2)C(=O)N(C)[C@@H](C2CCCC2)C(=O)N(C)[C@H](C(=O)N(C)CC)CC(=O)N1C [PP2704],–,–,–,B (a compound having 3 or more and less than 10 is denoted as B),B (a compound having 3 or more and less than 10 is denoted as B),–,–,10.7 nM
CCC[C@H]1C(=O)N[C@@H]([C@@H](C)CC)C(=O)N(C)CC(=O)N(C)[C@H]2C/C=C\CCN(C2=O)[C@@H](Cc2ccc(C(F)(F)F)cc2)C(=O)N(C)CC(=O)N[C@@H](CCc2ccc(Cl)c(C(F)(F)F)c2)C(=O)N2C[C@H](OCC)C[C@H]2C(=O)NC2(CC(C)(C)C2)C(=O)N(C)[C@@H](C(CC)CC)C(=O)N(C)[C@H](C(=O)N(C)C)CC(=O)N1C [PP2785],–,10.5 nM,–,A (a compound having 10 or more and less than 20 is denoted as A),AA (a compound having 20 or more is denoted as AA),–,–,–
CC[C@H](C)[C@@H]1NC(=O)[C@H](CC(C)C)N(C)C(=O)C[C@@H](C(=O)N(C)C)N(C)C(=O)[C@H](C2CCCC2)N(C)C(=O)C2(CCCC2)NC(=O)[C@@H]2CCCN2C(=O)[C@H](CCc2ccc(C(F)(F)F)c(Cl)c2)NC(=O)CN(C)C(=O)[C@H](Cc2ccc(C)cc2)N2CC=CCOC[C@@H](C2=O)N(C)C(=O)CN(C)C1=O [PP0627],C (A compound having a KD ratio of 0.1 or more and less than 3 is denoted as C),98.3 nM,C (A compound having a KD ratio of 0.1 or more and less than 3 is denoted as C),–,–,–,–,–
